According to US20110098221A1, “INHIBITORS OF Akt ACTIVITY” (priority 2008, published 2011):

Biological target: T1, full length AKT1 (Homo sapiens, UniProt P31749)
T1 construct: His tag (from vector pFastBacHTb) (N); made in house; host or cells: baculovirus; Sf9 / T. ni insect cells
Experiment: Full-length AKT enzyme assay (substrate phosphorylation, SPA)
Type: biochemical
Settings: in at least one experimental run; pIC50 = -log(IC50), IC50 in molar units; 4 uM ATP, 10 nM activated enzyme; read-out: pIC50 against full length AKT1 (converted)

T1 sequence (P31749 whole entry): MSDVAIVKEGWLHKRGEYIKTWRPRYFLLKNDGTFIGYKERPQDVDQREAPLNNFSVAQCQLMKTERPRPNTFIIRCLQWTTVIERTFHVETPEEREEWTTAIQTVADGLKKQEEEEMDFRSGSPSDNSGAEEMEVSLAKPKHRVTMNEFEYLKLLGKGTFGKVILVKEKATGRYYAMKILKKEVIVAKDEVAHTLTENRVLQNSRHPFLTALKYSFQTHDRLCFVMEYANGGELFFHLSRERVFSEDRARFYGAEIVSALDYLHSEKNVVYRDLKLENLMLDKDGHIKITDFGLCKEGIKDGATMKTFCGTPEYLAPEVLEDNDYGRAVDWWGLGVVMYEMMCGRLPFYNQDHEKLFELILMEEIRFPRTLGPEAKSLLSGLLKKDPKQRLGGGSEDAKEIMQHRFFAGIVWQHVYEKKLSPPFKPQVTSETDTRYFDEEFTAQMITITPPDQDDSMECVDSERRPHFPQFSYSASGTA

IC50: 6.31 nM
Structure (SMILES): Cn1nccc1-c1cnc(C(=O)N[C@H](CN)Cc2cccc(F)c2)s1 [Example 1, N-{(1S)-2-amino-1-[(3-fluorophenyl)methyl]ethyl}-5-(1-methyl-1H-pyrazol-5-yl)-1,3-thiazole-2-carboxamide]
